In patent US20220087961A1, “TREATMENT METHODS OF TRIPHENYL CALCILYTIC COMPOUNDS” (CALCILYTIX THERAPEUTICS, INC., priority 2020, published 2022):

Tests used:
[1] = cited from earlier work
subjects with ADH1 = assay: Phase 2b open-label dose-ranging study, Period 2; format: in vivo, human
Method: Period 2: an inpatient stay that consists of 5 dosing days during which subjects will receive BID doses of CLTX-305 based on individual responses from Period 1 (for subjects who complete Period 1) or review of aggregate data from Period 1 (for subjects in Cohort 2 entering Period 2 without prior exposure to CLTX-305). The initial dose, dose level 1 (DL1) will be administered for 2 days (48 hours) with cCa monitoring. Participants will undergo encaleret dose up- or down-titration depending on cCa levels, with a potential increase in dose if cCa remains below the lower limit of normal and potential decrease in dose if cCa is greater than or equal to the upper limit of normal. A final test day (Day 5) will include frequent blood and urine sampling to collect 24-hour PK/PD profiles after at least 3 consecutive days of dosing (at either DL1 or DL2).
In Period 2, eligible Cohort 1 subjects, who have completed Period 1, may return after at least 8 weeks for admission to NIH for Period 2. After all Cohort 1 subjects have finished Period 1 and the data analyzed, the Sponsor will open enrolment for Cohort 2 subjects. Eligible Cohort 2 subjects may enroll directly into Period 2, after completing the screening and consent process per protocol. In Period 2 all subjects will initiate CLTX-305 BID dosing given within 30 minutes prior to breakfast and dinner on Days 1 and 2. cCa concentrations will be monitored frequently throughout Period 2, and CLTX-305 doses will be up- or down-titrated as needed to target normal cCa concentrations. Assessment of the 24-hour PK/PD profile of CLTX-305 with BID dosing will be conducted on Day 5.
As a result, all remaining subjects in Period 2 will receive an initial CLTX-305 90 mg BID dose for at least 3-4 doses for evaluation of safety, tolerability and the ability to modulate cCa levels. The CLTX-305 dose will be up- or down-titrated as needed to maintain cCa levels below 10 mg/dL and blood phosphorus levels above the lower limit of normal. […]

[2] = preclinical; dose-limiting effects were mechanism-based serum calcium elevations; cited from earlier work
[3] = cited from earlier work; remark: listed apart in the source
[4] = non-clinical data; cited from earlier work
rabbits = conditions: fetuses; cited from earlier work
[5] = humans, most single doses or steady-state
[6] = not significant when body weight taken into account

In the case of `Cc1cc(-c2ccccc2[C@@H](C)OC[C@H](O)CNC(C)(C)Cc2ccc(Cl)c(F)c2)ccc1C(=O)O` [CLTX-305, encaleret], the “increase in AUC0-24 on co-administration with ketoconazole” value [1] is given as “approximately 2 ×”, the “increase in Cmax on co-administration with ketoconazole” value [1] is given as “approximately 1.67 ×” and the serious adverse events (subjects with ADH1; Period 2 (Periods 1 and 2)) is given as “no serious adverse events reported”. The tolerability (subjects with ADH1; Period 2 (Periods 1 and 2), once or twice daily over 5 days) was “well-tolerated”, the “Number of AEs” value (subjects with ADH1; Period 2, n=13) was 12 n and the “off-target or organ-specific toxicities” value [2] was “no off-target or other tissue or organ-specific toxicities were identified”. The “dose proportionality of plasma concentrations” value ([3]; 5, 10, 15, 30, 50 and 100 mg, fasted state) was “Dose-proportional increases”, the “age-related or race differences in pharmacokinetics” value ([3]; US population vs. Japanese subjects) was “No significant age-related or race differences” and the “half-life of CLTX-305 at steady state” value ([3]; as stated in the study assessment section) was 10 to 14 h. For the same molecule, the “food effect on plasma concentrations” value ([3]; dose range 5-100 mg) was “without significant food effect”, the tmax median [3, 5] was 1.5 h and the tmax range [3, 5] was 45 to 180 min. The “elimination half-life (t1/2) after single doses” value ([3]; humans, single doses) was “approximately 6.5 hours”, the “elimination half-life (t1/2) at steady state” value ([3]; humans, steady state (14 days)) was 11 to 14 h and the “excretion of unchanged CLTX-305 and metabolites into urine” value ([3]; humans, total of parent and metabolite) was under 5%. The “AUC higher in females” value [3, 6] was “approximately 37%”, the “Cmax higher in females” value [3, 6] was about 30% and the accumulation ([3]; once daily (QD) for two weeks, Japanese postmenopausal women) was “minimal accumulation”. The “main route of elimination” value [4] was “fecal excretion was the main route of elimination” and the “dose at which incidence of fetal skeletal anomalies (fusion of the sternebra) was increased” value (rabbits) was at least 30 mg/kg.
